Common to all, as to assay type: in vivo
For series [1], the system named is cocklebur. In words: Herbicidal activity test against upland field weeds (soil treatment test). Also noted: key to Soil treatment herbicidal activity, Cocklebur: 0 (no control); 100 (complete control). The following applies: 50 g ai/ha, scale 0 (no control) to 100 (complete control). Here is the method: (§1) Experimental Example 2: Herbicidal Activity Test Against Upland Field Weeds (Soil Treatment Test) Soil treatment was performed as follows: After filling a square plastic pot having a surface area of 350 cm^2 with sandy loam mixed with 1 g per pot (350 cm^2) of horticultural mixed fertilizer (N:P:K=11:10:11), seeds (10˜15 grains) or rootstocks (2 pieces) of 5 kinds of grassy weeds of sorghum, barnyard grass, quack grass, crabgrass, fall panicum, and 5 kinds of broadleaf weeds of black nightshade, indian jointvetch, velvetleaf, cocklebur, bindweed, which had been stored in a low temperature (6° C.), were sown. The day after sowing, test compound solutions were made by diluting with a preparation solution (including 50% acetone, 0.1% Tween-20) so that the final treatment amount of the test compounds was 50 or 75 g a.i./ha. The prepared test compound solution was used for treating soil surface by hand-spraying 14 mL per pot in a fume hood. After the treatment, it was managed under the same greenhouse conditions (average temperature 30±5° C., light/dark=14/10 hours), and after 14 days (after 21 days if necessary), the external symptoms and efficacy were investigated according to the scale of 0 (no control) to 100 (complete control). The results of Table 8 were obtained by evaluating weed control value to the untreated control by conducting visual assessment.

The subject of series [2] is barnyard grass. In words: Herbicidal activity test against upland field weeds (foliar treatment test). Particulars: 50 g ai/ha, scale 0-100; for pest or weed control at 50 g/ha: Echinochloa crus-galli. In short, it runs like this: (§2)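 Visual 0–100 control ratings relative to untreated plants, taken 14 (or 21) days after spraying foliage at 50 or 75 g a.i./ha. Spray solution: 50% acetone with 0.1% Tween-20; plants kept in greenhouse at 30±5 °C, 14 h light/10 h dark.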

Series [3] has as its system black nightshade. In words: Herbicidal activity test against upland field weeds (soil treatment test). Also noted: key to Soil treatment herbicidal activity, black nightshade: 0 (no control); 100 (complete control). Particulars: 50 g ai/ha, scale 0 (no control) to 100 (complete control); for pest or weed control at 50 g/ha: Solanum nigrum. Here is the method: as §1
The test system of series [4] is cocklebur. Kind of series: Herbicidal activity test against upland field weeds (foliar treatment test). Also noted: key to Foliar treatment herbicidal activity, Cocklebur: 0 (no control); 100 (complete control). Particulars: 50 g ai/ha, scale 0-100. In short, it runs like this:
as §2

For series [5], the system named is crabgrass. In words: Herbicidal activity test against upland field weeds (soil treatment test). Also noted: key to Soil treatment herbicidal activity, Crabgrass: 0 (no control); 100 (complete control). The following applies: 50 g ai/ha, scale 0 (no control) to 100 (complete control). Here is the method: as §1
Series [6] has as its system velvetleaf. The series is described as above. Also noted: key to Soil treatment herbicidal activity, velvet leaf: 0 (no control); 100 (complete control). The following applies: 50 g ai/ha, scale 0 (no control) to 100 (complete control). Here is the method:
as §1

Series [7] deals with black nightshade. In words: Herbicidal activity test against upland field weeds (foliar treatment test). Also noted: key to Foliar treatment herbicidal activity, black nightshade: 0 (no control); 100 (complete control). The following applies: 50 g ai/ha, scale 0-100. In short, it runs like this: as §2
For series [8], the system named is barnyard grass. Kind of series: Herbicidal activity test against upland field weeds (soil treatment test). Also noted: key to Soil treatment herbicidal activity, barnyard grass: 0 (no control); 100 (complete control). The following applies: 50 g ai/ha, scale 0 (no control) to 100 (complete control). On the procedure:
as §1

For series [9], the system named is sorghum. Kind of series: Herbicidal activity test against upland field weeds (foliar treatment test). The following applies: 50 g ai/ha, scale 0-100; for plant injury at 50 g/ha: Sorghum. An outline of the steps: as §2
Series [10] has as its system indian jointvetch. The series is described as above. Also noted: key to Foliar treatment herbicidal activity, Indian jointvetch: 0 (no control); 100 (complete control). Particulars: 50 g ai/ha, scale 0-100. In short, it runs like this: as §2
The test system of series [11] is fall panicum. In words: Herbicidal activity test against upland field weeds (soil treatment test). Also noted: key to Soil treatment herbicidal activity, Fall panicum: 0 (no control); 100 (complete control). The following applies: 50 g ai/ha, scale 0 (no control) to 100 (complete control). On the procedure:
as §1

Series [12] has as its system bindweed. Kind of series: Herbicidal activity test against upland field weeds (foliar treatment test). Also noted: key to Foliar treatment herbicidal activity, Bindweed: 0 (no control); 100 (complete control). Particulars: 50 g ai/ha, scale 0-100. In short, it runs like this:
as §2

Series [13] relates to quack grass. In words: Herbicidal activity test against upland field weeds (soil treatment test). Also noted: key to Soil treatment herbicidal activity, quack grass: 0 (no control); 100 (complete control). The following applies: 50 g ai/ha, scale 0 (no control) to 100 (complete control). Here is the method: as §1
The subject of series [14] is fall panicum. In words: Herbicidal activity test against upland field weeds (foliar treatment test). Particulars: 50 g ai/ha, scale 0-100; for pest or weed control at 50 g/ha: Panicum dichotomiflorum. An outline of the steps:
as §2

In series [15] the test system is sorghum. Kind of series: Herbicidal activity test against upland field weeds (soil treatment test). Also noted: key to Soil treatment herbicidal activity, Sorghum: 0 (no control); 100 (complete control). The following applies: 50 g ai/ha, scale 0 (no control) to 100 (complete control). On the procedure:
as §1

The test system of series [16] is crabgrass. In words: Herbicidal activity test against upland field weeds (foliar treatment test). Also noted: key to Foliar treatment herbicidal activity, Crabgrass: 0 (no control); 100 (complete control). The following applies: 50 g ai/ha, scale 0-100. An outline of the steps: as §2
The subject of series [17] is quack grass. Described as above. Also noted: key to Foliar treatment herbicidal activity, quack grass: 0 (no control); 100 (complete control). Particulars: 50 g ai/ha, scale 0-100. An outline of the steps: as §2
Series [18] has as its system indian jointvetch. In words: Herbicidal activity test against upland field weeds (soil treatment test). Also noted: key to Soil treatment herbicidal activity, Indian jointvetch: 0 (no control); 100 (complete control). Particulars: 50 g ai/ha, scale 0 (no control) to 100 (complete control). Here is the method: as §1
Series [19] relates to velvetleaf. In words: Herbicidal activity test against upland field weeds (foliar treatment test). Also noted: key to Foliar treatment herbicidal activity, velvet leaf: 0 (no control); 100 (complete control). Particulars: 50 g ai/ha, scale 0-100. An outline of the steps: as §2
Another series relates to wheat. In words: Phytotoxicity test for upland field crops (foliar treatment test). Also noted: key: 0 (no harm); 9 (complete withered). An outline of the steps:
(§3)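 Post-emergence spray at 19–300 g a.i./ha (acetone/Tween-20 diluent, 100 ml/m²) onto greenhouse-grown plants. Damage rated 7 and 14 (optionally 21) days later on a 0–9 scale relative to untreated plants.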

Another series has as its system corn. The description is as above. Also noted: key: 0 (no harm); 9 (complete withered). An outline of the steps:
as §3

Series [20] deals with bindweed. Kind of series: Herbicidal activity test against upland field weeds (soil treatment test). The following applies: 50 g ai/ha, scale 0 (no control) to 100 (complete control). Also noted: key to Soil treatment herbicidal activity, Bindweed: 0 (no control); 100 (complete control). Here is the method:
as §1

On to `CON(Cc1nc(C(F)(F)F)ccc1C(=O)Nc1nnnn1C)Cc1ncnn1C` [Compound No. 1-91, 2-((methoxy((1-methyl-1H-1,2,4-triazol-5-yl)methyl)amino)methyl)-N-(1-methyl-1H-tetrazol-5-yl)-6-(trifluoromethyl)nicotinamide], for which the “Soil treatment herbicidal activity, Cocklebur” value in the series on cocklebur [1] was 0. Further, the pest or weed control at 50 g/ha was 98% in the series on barnyard grass [2]; 98% in the series on black nightshade [3]; 98% in the series with black nightshade [7] (Solanum nigrum); 90% with indian jointvetch [10]; 80% in the series on bindweed [12]; 90% in the series with fall panicum [14]. In addition, the pest or weed control at 50 g/ha in the series with crabgrass [16] (Digitaria sanguinalis) and in the series on indian jointvetch [18] was 98% throughout. The “Foliar treatment herbicidal activity, Cocklebur” value in the series on cocklebur [4] worked out at 100. Also, the “Soil treatment herbicidal activity, Crabgrass” value with crabgrass [5] came out at 0. Also, the “Soil treatment herbicidal activity, velvet leaf” value in the series on velvetleaf [6] stood at 100. For the same molecule, in the series with barnyard grass [8], the “Soil treatment herbicidal activity, barnyard grass” value came to 0. In addition, the plant injury (commonly the degree to which the test organism was suppressed or injured, in per cent) at 50 g/ha in the series on sorghum [9] stood at 50%. For the same molecule, the “Soil treatment herbicidal activity, Fall panicum” value with fall panicum [11] was 0. Besides, the “Soil treatment herbicidal activity, quack grass” value in the series on quack grass [13] came to 0. In addition, the “Soil treatment herbicidal activity, Sorghum” value in the series on sorghum [15] is on record as 0. Moreover, the “Foliar treatment herbicidal activity, quack grass” value in the series with quack grass [17] stood at 0. Further, the “Foliar treatment herbicidal activity, velvet leaf” value in the series on velvetleaf [19] came to 100.

In the case of `CSc1nc(COCc2nc(C(F)(F)F)ccc2C(=O)Nc2nnnn2C)nn1C` [Compound No. 2-131, N-(1-methyl-1H-tetrazol-5-yl)-2-(((1-methyl-5-(methylthio)-1H-1,2,4-triazol-3-yl)methoxy)methyl)-6-(trifluoromethyl)nicotinamide], in the series on cocklebur [1], the “Soil treatment herbicidal activity, Cocklebur” value was found to be 0. The pest or weed control at 50 g/ha with barnyard grass [2] was 98%; with black nightshade [3], 98%; with cocklebur [4] (Xanthium strumarium), 80%; in the series on velvetleaf [6] (Abutilon theophrasti, read-out: Soil treatment herbicidal activity, velvet leaf), 98%; in the series with indian jointvetch [10], 70%; in the series with fall panicum [14] it was 70%. Also, in the series on quack grass [17], the pest or weed control at 50 g/ha was determined as 10%. Also, the “Soil treatment herbicidal activity, Crabgrass” value in the series with crabgrass [5] is reported as 0. For the same molecule, the “Foliar treatment herbicidal activity, black nightshade” value in the series on black nightshade [7] is 100. Also, the “Soil treatment herbicidal activity, barnyard grass” value in the series with barnyard grass [8] is reported as 0. The plant injury at 50 g/ha in the series on sorghum [9] was 40%. In addition, the “Soil treatment herbicidal activity, quack grass” value with quack grass [13] is recorded as 0. The “Soil treatment herbicidal activity, Sorghum” value in the series on sorghum [15] was 0. For the same molecule, in the series on crabgrass [16], the “Foliar treatment herbicidal activity, Crabgrass” value was 100. For the same molecule, the “Soil treatment herbicidal activity, Indian jointvetch” value with indian jointvetch [18] is listed as 100. Moreover, the “Foliar treatment herbicidal activity, velvet leaf” value with velvetleaf [19] was 100.

As to `COC(=O)OC(C)N(C(=O)c1ccc(C(F)(F)F)nc1CSCc1nnn(C)n1)c1nnnn1C` (stereo not drawn) [Compound No. 4-3, methyl(1-(N-(1-methyl-1H-tetrazol-5-yl)-2-((((2-methyl-2H-tetrazol-5-yl)methyl)thio)methyl)-6-(trifluoromethyl)nicotinamido)ethyl)carbonate], the “Foliar treatment phytotoxicity, Wheat” value came to 0 with wheat (50 g ai/ha, Wheat (7 days after treatment)); 0 with wheat (50 g ai/ha, Wheat (14 days after treatment)); 0 in the series on wheat (100 g ai/ha, Wheat (7 days after treatment)); 0 in the series on wheat (100 g ai/ha, Wheat (14 days after treatment)). Also, the “Foliar treatment phytotoxicity, Corn” value came to 0 in the series on corn (50 g ai/ha, Corn (7 days after treatment)); 0 in the series with corn (50 g ai/ha, Corn (14 days after treatment)); 1 with corn (100 g ai/ha, Corn (7 days after treatment)); 0 in the series on corn (100 g ai/ha, Corn (14 days after treatment)). The “Soil treatment herbicidal activity, Bindweed” value in the series with bindweed [20] came to 0. The “Foliar treatment herbicidal activity, barnyard grass” value with barnyard grass [2] stood at 98. In the series with black nightshade [3], the “Soil treatment herbicidal activity, black nightshade” value came to 100. For the same molecule, the “Foliar treatment herbicidal activity, Cocklebur” value in the series on cocklebur [4] was found to be 98. For the same molecule, in the series on crabgrass [5], the “Soil treatment herbicidal activity, Crabgrass” value stood at 98. In addition, the “Soil treatment herbicidal activity, velvet leaf” value in the series with velvetleaf [6] worked out at 50. Further, in the series on black nightshade [7], the “Foliar treatment herbicidal activity, black nightshade” value is reported as 100. In addition, the “Soil treatment herbicidal activity, barnyard grass” value with barnyard grass [8] came to 0. Further, the “Foliar treatment herbicidal activity, Sorghum” value in the series on sorghum [9] turned out to be 80. Further, the “Foliar treatment herbicidal activity, Indian jointvetch” value with indian jointvetch [10] amounted to 100. Besides, in the series on fall panicum [11], the “Soil treatment herbicidal activity, Fall panicum” value came out at 0. Besides, the “Foliar treatment herbicidal activity, Bindweed” value in the series with bindweed [12] is on record as 100. For the same molecule, the “Soil treatment herbicidal activity, quack grass” value in the series on quack grass [13] turned out to be 0. Also, in the series on fall panicum [14], the “Foliar treatment herbicidal activity, Fall panicum” value turned out to be 80. For the same molecule, the “Soil treatment herbicidal activity, Sorghum” value with sorghum [15] amounted to 0. The “Foliar treatment herbicidal activity, Crabgrass” value in the series with crabgrass [16] was determined as 98. Further, the “Foliar treatment herbicidal activity, quack grass” value in the series with quack grass [17] is 0. Also, the “Soil treatment herbicidal activity, Indian jointvetch” value in the series on indian jointvetch [18] is 0. Moreover, the “Foliar treatment herbicidal activity, velvet leaf” value with velvetleaf [19] is on record as 98.

Source of the values: patent US12495798B2, “Nicotinamide compound and herbicidal composition comprising compound” (KOREA RESEARCH INSTITUTE OF CHEMICAL TECHNOLOGY, priority 2019, dated 2025).
